Consider 15 compounds from patent publication US11878965B2, “Inhibitors of peptidylarginine deiminases” (Gilead Sciences, Inc., priority 2020, dated 2024).

For orientation: IC50 means the concentration at which inhibition is half-maximal.

Chain of human PAD4 (Q9UM07 2-663): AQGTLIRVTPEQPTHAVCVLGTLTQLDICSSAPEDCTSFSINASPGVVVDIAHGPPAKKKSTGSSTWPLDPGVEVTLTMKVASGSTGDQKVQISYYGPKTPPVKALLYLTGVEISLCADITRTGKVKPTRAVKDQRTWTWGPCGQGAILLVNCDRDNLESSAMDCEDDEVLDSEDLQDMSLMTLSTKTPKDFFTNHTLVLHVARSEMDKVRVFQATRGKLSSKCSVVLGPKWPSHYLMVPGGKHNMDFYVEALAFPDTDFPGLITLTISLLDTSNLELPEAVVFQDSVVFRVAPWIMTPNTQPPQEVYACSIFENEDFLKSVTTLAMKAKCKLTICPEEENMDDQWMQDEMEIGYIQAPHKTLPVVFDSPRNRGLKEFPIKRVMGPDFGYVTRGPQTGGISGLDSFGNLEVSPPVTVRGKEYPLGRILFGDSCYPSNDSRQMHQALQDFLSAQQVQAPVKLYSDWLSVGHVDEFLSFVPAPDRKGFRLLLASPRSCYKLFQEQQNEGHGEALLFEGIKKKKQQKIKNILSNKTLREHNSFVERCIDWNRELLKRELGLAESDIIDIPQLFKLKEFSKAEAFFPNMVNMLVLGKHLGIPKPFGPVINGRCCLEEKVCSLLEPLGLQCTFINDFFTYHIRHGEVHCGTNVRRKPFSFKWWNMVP

The target in the first assay is human PAD4 (Homo sapiens (Human), UniProt Q9UM07). Put plainly: In Vitro PAD4 BAEE Biochemical Assay. The note with it: human PAD4, BAEE substrate; 5 nM PAD4, 2 mM calcium chloride, 3 mM BAEE; geometric mean of multiple experiments. The method, then:
The PCR product was ligated into linearized pET-SUMO vector (Invitrogen, Carlsbad, CA), which is part of the Champion™ pET SUMO Protein Expression System. After sequence verification for the correct orientation, the pET-SUMO-hPAD4 expression plasmid was transformed into BL21(DE3) cells.
E. Coli BL21(DE3) cells were inoculated in LB medium with kanamycin at 37° C. until A600 nm reached about 0.5. Protein expression was induced by addition of 0.5 mM IPTG (final) and continued overnight at 16° C. at 220 rpm.
Cells were harvested by centrifugation at 5000 rpm for 10 minutes at 4° C. The pellet was resuspended in 300 ml lysis buffer (20 mM Tris-HCl, pH 8.0, 1 mM EDTA, 500 mM NaCl, 1 mM (tris(2-carboxyethyl)phosphine) (TCEP), 10% glycerol, and 1% Triton X100 and EDTA free protease inhibitor) and lysed by 3× passage through a microfluidizer (Microfluidics, Newton, MA) at 18,000 psi. The cell lysate was clarified by centrifugation at 30,000 rpm for 60 minutes at 4° C. The supernatant was applied to a 5 ml Ni-HP (GE HealthCare Cat #17524701) column preequilibrated in Ni-A buffer (20 mM Tris-HCl, pH 8.0, 20 mM Imidazole, 1 mM TCEP, 10% glycerol, and 400 mM NaCl). Bound protein was eluted with a 0-100% linear gradient of 100 mL Ni-B buffer (Ni A buffer+0.5 M Imidazole).
The His-Sumo tag was cleaved using sumo protease (Thermo Fisher Cat #: 12588018) while dialyzing in buffer (20 mM Tris-HCl, pH 8.0, 1 mM EDTA, 500 mM NaCl, 1 mM TCEP, 10% glycerol). The protein was then reloaded onto a Ni-HP column for a reverse purification step and recovered in flow through fraction. The protein with His-Sumo tag removed was then polished using a 16/60 Superdex-200 gel filtration column with gel filtration buffer (20 mM Tris pH 8.0, NaCl 400 mM and 1 mM TCEP). The fractions containing the protein were pulled and frozen at −80° C.
In Vitro PAD4 BAEE Biochemical Assay
The enzymatic activity of human PAD4 was monitored in a biochemical assay in the presence or absence of compounds using the small peptidyl arginine mimic BAEE (Nα-Benzoyl-L-arginine ethyl ester hydrochloride) as substrate. PAD4 activity led to deimination of BAEE and release of ammonia. Levels of ammonia were monitored by using an amine coupling reaction and were indicative of PAD4 enzymatic activity.
One hundred nanoliters of test compounds dissolved in DMSO at various concentrations were dispensed into a 384-well black OptiPlate using a Labcyte Echo instrument. Ten microliters of a solution of recombinant PAD4 and calcium chloride diluted in PAD4 assay buffer (50 mM MOPS [3-(N-morpholino) propanesulfonic acid], pH 7.6; 50 mM sodium chloride; 0.05% Tween-20; 2 mM dithiothreitol) was added to the compound-containing plate and was incubated for 30 minutes at 25° C. Ten microliters of a solution of BAEE (Sigma-Aldrich #B4500) diluted in PAD4 assay buffer was then added to start the reaction. Final concentrations were 5 nM PAD4, 2 mM calcium chloride, and 3 mM BAEE. The reaction mixture was incubated at 25° C. for 2 hours and was stopped with the addition of 10 microliters of a solution of 75 mM EDTA (Ethylenediaminetetraacetic acid) in PAD4 assay buffer. Thirty microliters of detection solution (5 mM o-phthalaldehyde, 50 mM MOPS [3-(N-morpholino) propanesulfonic acid], pH 7.6; 50 mM sodium chloride; 0.05% Tween-20; 5 mM dithiothreitol) was then added and the reaction was incubated for 1 hour at 25° C. The level of fluorescent thiol-substituted isoindole resulting from the reaction of ammonia, o-phthalaldehyde, and dithiothreitol was measured on an Envision plate reader (PerkinElmer) with 405 nm excitation and 535 nm emission.
For the compound `COc1cc(C(=O)N2C[C@H](N)CCN2C)cc2nc(-c3cc4ccc([C@@H](C)NC(=O)C56CC(F)(C5)C6)nc4n3CC3CC3)n(C)c12` [Example 171, N-((R)-1-(2-(5-((R)-5-amino-2-methylhexahydropyridazine-1-carbonyl)-7-methoxy-1-methyl-1H-benzo[d]imidazol-2-yl)-1-(cyclopropylmethyl)-1H-pyrrolo[2,3-b]pyridin-6-yl)ethyl)-3-fluorobicyclo[1.1.1]pentane-1-carboxamide], the IC50 turned out to be 90.2 nM.

On to `COc1cc(C(=O)N2C[C@H](N)CCN2C)cc2nc(-c3cc4ccc([C@@H](C)NC(=O)c5c(F)cc(F)cc5F)nc4n3CC3CC3)n(C)c12` [Example 157, N-((R)-1-(2-(5-((R)-5-amino-2-methylhexahydropyridazine-1-carbonyl)-7-methoxy-1-methyl-1H-benzo[d]imidazol-2-yl)-1-(cyclopropylmethyl)-1H-pyrrolo[2,3-b]pyridin-6-yl)ethyl)-2,4,6-trifluorobenzamide], for which the IC50 was found to be 87.4 nM.

For `COc1cc(C(=O)N2C[C@H](N)CC[C@@H]2C)cc2nc(-c3cc4ccc(N(C(F)F)S(C)(=O)=O)nc4n3CC3CC3)n(C)c12` [Example 38, N-(2-(5-((2S,5R)-5-amino-2-methylpiperidine-1-carbonyl)-7-methoxy-1-methyl-1H-benzo[d]imidazol-2-yl)-1-(cyclopropylmethyl)-1H-pyrrolo [2,3-b]pyridin-6-yl)-N-(difluoromethyl) methanesulfonamide], the IC50 stood at 93.4 nM.

For `COc1cc(C(=O)N2C[C@H](N)CCN2C)cc2nc(-c3cc4ccc(C(C)(C)O)nc4n3CC3CC3)n(C)c12` [Example 249, (R)-(5-amino-2-methyltetrahydropyridazin-1(2H)-yl)(2-(1-(cyclopropylmethyl)-6-(2-hydroxypropan-2-yl)-1H-pyrrolo[2,3-b]pyridin-2-yl)-7-methoxy-1-methyl-1H-benzo[d]imidazol-5-yl)methanone], the IC50 turned out to be 227 nM.

Consider `COc1cc(C(=O)N2[C@H]3CC[C@@H]2[C@H](N)C3)cc2nc(-c3cc4ccc([C@@H](C)NC(C)=O)nc4n3CC3CC3)n(C)c12` [Example 118, N-((R)-1-(2-(5-((1R,2R,4S)-2-amino-7-azabicyclo[2.2.1]heptane-7-carbonyl)-7-methoxy-1-methyl-1H-benzo[d]imidazol-2-yl)-1-(cyclopropylmethyl)-1H-pyrrolo[2,3-b]pyridin-6-yl)ethyl)acetamide], for which the IC50 was 45.6 nM.

On to `COc1cc(C(=O)N2CCC[C@@H](N)[C@H]2C)cc2nc(-c3cc4ccc(N(C(F)F)S(C)(=O)=O)nc4n3CC3CC3)n(C)c12` [Example 33, N-(2-(5-((2R,3R)-3-amino-2-methylpiperidine-1-carbonyl)-7-methoxy-1-methyl-1H-benzo[d]imidazol-2-yl)-1-(cyclopropylmethyl)-1H-pyrrolo [2,3-b]pyridin-6-yl)-N-(difluoromethyl) methanesulfonamide], for which the IC50 came to 77.3 nM.

Consider `CCCN(c1ccc2cc(-c3nc4cc(C(=O)N5CCC[C@@H](N)C5)cc(OC)c4n3C)n(CC3CC3)c2n1)S(C)(=O)=O` [Example 10, (R)-N-(2-(5-(3-aminopiperidine-1-carbonyl)-7-methoxy-1-methyl-1H-benzo[d]imidazol-2-yl)-1-(cyclopropylmethyl)-1H-pyrrolo [2,3-b]pyridin-6-yl)-N-propylmethanesulfonamide], for which the IC50 stood at 330 nM.

For the compound `COc1cc(C(=O)N2C[C@H](N)CCN2C)cc2nc(-c3cc4ccc([C@@H](C)NC(=O)Cc5ccccc5)nc4n3CC3CC3)n(C)c12` [Example 158, N-((R)-1-(2-(5-((R)-5-amino-2-methylhexahydropyridazine-1-carbonyl)-7-methoxy-1-methyl-1H-benzo[d]imidazol-2-yl)-1-(cyclopropylmethyl)-1H-pyrrolo[2,3-b]pyridin-6-yl)ethyl)-2-phenylacetamide], the IC50 is 76.2 nM.

Consider `COc1cc(C(=O)N2[C@H]3CC[C@@H]2[C@H](N)C3)cc2nc(-c3cc4ccc([C@@H](C)NC(=O)C5(C(F)(F)F)CC5)nc4n3CC3CC3)n(C)c12` [Example 207, N-((R)-1-(2-(5-((1R,2R,4S)-2-amino-7-azabicyclo[2.2.1]heptane-7-carbonyl)-7-methoxy-1-methyl-1H-benzo[d]imidazol-2-yl)-1-(cyclopropylmethyl)-1H-pyrrolo[2,3-b]pyridin-6-yl)ethyl)-1-(trifluoromethyl)cyclopropane-1-carboxamide], for which the IC50 turned out to be 240 nM.

For the compound `COc1cc(C(=O)N2C[C@H](N)CCN2C)cc2nc(-c3cc4ccc([C@@H](C)NC(=O)c5c(C)cccc5C)nc4n3CC3CC3)n(C)c12` [Example 172, N-((R)-1-(2-(5-((R)-5-amino-2-methylhexahydropyridazine-1-carbonyl)-7-methoxy-1-methyl-1H-benzo[d]imidazol-2-yl)-1-(cyclopropylmethyl)-1H-pyrrolo[2,3-b]pyridin-6-yl)ethyl)-2,6-dimethylbenzamide], the IC50 stood at 147 nM.

`COc1cc(C(=O)N2[C@H]3CC[C@@H]2[C@H](N)C3)cc2nc(-c3cc4ccc([C@H]5CCCN5C(C)=O)nc4n3CC3CC3)n(C)c12` [Example 247, 1-((R)-2-(2-(5-((1R,2R,4S)-2-amino-7-azabicyclo[2.2.1]heptane-7-carbonyl)-7-methoxy-1-methyl-1H-benzo[d]imidazol-2-yl)-1-(cyclopropylmethyl)-1H-pyrrolo[2,3-b]pyridin-6-yl)pyrrolidin-1-yl)ethan-1-one]: the IC50 was determined as 36.7 nM.

For the compound `CCN(c1ccc2cc(-c3nc4cc(C(=O)N5CCC[C@@H](N)[C@H]5C)cc(OC)c4n3C)n(CC3CC3)c2n1)S(C)(=O)=O` [Example 28, N-(2-(5-((2R,3R)-3-amino-2-methylpiperidine-1-carbonyl)-7-methoxy-1-methyl-1H-benzo[d]imidazol-2-yl)-1-(cyclopropylmethyl)-1H-pyrrolo [2,3-b]pyridin-6-yl)-N-ethylmethanesulfonamide], the IC50 amounted to 98.6 nM.

In the case of `CCN(c1ccc2cc(-c3nc4cc(C(=O)N5CCC[C@@H](N)C5)cc(OC)c4n3C)n(CC3CC3)c2n1)S(=O)(=O)C1CC1` [Example 25, (R)-N-(2-(5-(3-aminopiperidine-1-carbonyl)-7-methoxy-1-methyl-1H-benzo[d]imidazol-2-yl)-1-(cyclopropylmethyl)-1H-pyrrolo [2,3-b]pyridin-6-yl)-N-ethylcyclopropanesulfonamide], the IC50 was found to be 82 nM.

Still in this assay, the particulars now being: recombinant PAD4 5 nM, 2 mM calcium chloride, 3 mM BAEE substrate; geometric mean of multiple experiments.
As for `COc1cc(C(=O)N2C[C@H](N)[C@@H]3CC[C@H]2C3)cc2nc(-c3cc4ccc([C@@H](C)NC(=O)c5ccc(C(F)(F)F)nc5)nc4n3CC3CC3)n(C)c12` [Example 313, N-((R)-1-(2-(5-((1S,4R,5R)-4-amino-2-azabicyclo[3.2.1]octane-2-carbonyl)-7-methoxy-1-methyl-1H-benzo[d]imidazol-2-yl)-1-(cyclopropylmethyl)-1H-pyrrolo[2,3-b]pyridin-6-yl)ethyl)-6-(trifluoromethyl)nicotinamide], the IC50 is 113 nM.

For the compound `COc1cc(C(=O)N2C[C@H](N)[C@@H]3CC[C@H]2C3)cc2nc(-c3cc4ccc([C@@H](C)NC(=O)c5cnn(C(F)(F)F)c5)nc4n3CC3CC3)n(C)c12` [Example 320, N-((R)-1-(2-(5-((1S,4R,5R)-4-amino-2-azabicyclo[3.2.1]octane-2-carbonyl)-7-methoxy-1-methyl-1H-benzo[d]imidazol-2-yl)-1-(cyclopropylmethyl)-1H-pyrrolo[2,3-b]pyridin-6-yl)ethyl)-1-(trifluoromethyl)-1H-pyrazole-4-carboxamide], the IC50 was determined as 82.6 nM.
